Series [1] has as its target T1, PPARγ (Homo sapiens, UniProt P37231).
T1 construct: For full length PPAR transfection studies, each well received 5 μg reporter construct; expressed in transfected cells; host or cells: COS-1 cells
T1 sequence (P37231 1-505): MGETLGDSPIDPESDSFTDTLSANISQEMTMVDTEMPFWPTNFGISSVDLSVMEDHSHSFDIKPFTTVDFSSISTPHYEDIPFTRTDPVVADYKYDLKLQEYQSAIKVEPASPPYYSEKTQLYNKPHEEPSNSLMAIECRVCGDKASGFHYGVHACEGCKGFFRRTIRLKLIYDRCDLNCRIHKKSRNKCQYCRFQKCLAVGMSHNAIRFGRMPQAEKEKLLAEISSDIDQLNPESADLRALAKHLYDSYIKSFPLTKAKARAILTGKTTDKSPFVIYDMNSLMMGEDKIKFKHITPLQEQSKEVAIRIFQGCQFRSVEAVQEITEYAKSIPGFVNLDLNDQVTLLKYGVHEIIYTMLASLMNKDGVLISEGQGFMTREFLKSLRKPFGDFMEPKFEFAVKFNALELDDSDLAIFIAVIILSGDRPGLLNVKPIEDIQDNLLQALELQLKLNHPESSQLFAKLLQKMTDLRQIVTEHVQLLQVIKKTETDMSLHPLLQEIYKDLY
As to the kind of experiment: Affinity testing in transfected cells (release of luciferase). The following applies: FIG. 8; 10 μM of PRBs. The class given is cell-based. Here is the method: Release of luciferase is correlated to transcription of genes. Binding of a ligand to a nuclear receptor such as PPARγ induces transcription of the respective gene thereby releasing luciferase. This technique therefore provides a measure of ligand affinity to the receptor as well as activation of the responsible gene.
Transient transfection of COS-1 cells was performed in 6-well plates as described by Graham and van der Eb (Graham). For full length PPAR transfection studies, each well received 5 μg reporter construct, 2.5 μg pSV-β-galactosidase as an internal control, 0.4 μg pSG5-PPARγ2. The cells were harvested after 72 h, and the luciferase activity was measured according to the protocol (Promega). The luciferase activity was normalised against β-galactosidase activity. The adipocytes were transfected at D11 of differentiation using 16 μl LipofectaminPlus reagent, 4 μl Lipofectamine (Life Technologies Inc.), 0.2 μg pSG5-PPARγ, and 100 ng pTK Renilla luciferase as control of transfection afficiency. […] The luciferase activities were measured as recommended by the manufacturer (Dual Luciferase assay, Promega). […]
Fatty acids (BRL or DHA) and PRBs (stock solutions) were solubilized to 0.1 M final concentration in DMSO. […] Luciferase activity was measured using a luminometer (TD-20/20 luminometer; Turner Designs, Sunnycvale, Calif.) and normalized against protein content.

Series [2] in a line: Analysis of intracellular free fatty acids in liver tissue (RP-HPLC MS/MS). The following applies: FIG. 4; 1.5% of total fat content. Type of series: in vivo, adipose prone mice of the C57BL/6J strain. Here is the method:
In the first block of experiments (see FIG. 2) liver tissue from animals fed PRB-1,2,5, and 7 was analysed with respect to free unesterified fatty acids. The animals were recruited from the fifth block of experiments (pharmacodynamic effects of DHA derivatives in an animal model of metabolic syndrome). The animals had been given DHA ([…] of fat content of the diet) or the DHA-derivatives (1.5% of the fat content in their diet) for 8 weeks and were supposed to be in a steady-state situation with stable levels of DHA and the DHA-derivatives intracellularily. Liver tissue was chosen due to the fact that the metabolisation rate is very high in liver.
The liver samples were homogenized in cold PBS buffer, and extracted immediately with chloroform:methanol (2:1) containing 0.2 mM butylated hydroxytoluene (BHT) using cis-10-heptadecenoic acid as internal standard. […] Total protein content was measured using Bio-Rad method after homogenization.
Agilent 1100 system was used for reverse phase column (Supelco Ascentis C18 column, 25 cm×4.6 mm, i.d. 5 μm) separation of DHA and its PRB derivatives within 22 min. […] The column elute was identified and quantified in the negative electrospray ionisation applying multiple reaction monitoring mode by triple tandem quadrapole mass/mass (ABI Qtrap-4000). […] The quadratic regression standard curve was used for quantification after internal standard calibration. […]

Series [3] is described as follows: Effect of DHA derivatives on established metabolic syndrome and insulin resistance (Example 5b). Type of series: in vivo, C57BL/6 mice. Here is the method: In another experiment, PRB-2, PRB-5, and PRB-7 were tested in the same breed of animals. In this experiment, animals were initially fed high fat diet (the same as in the previous experiment 5a) for 8 weeks developing insulin resistance and the metabolic syndrome, and then given the PRBs. […] After a period of another two weeks the animals were given 1.5% of PRB-2, 5% and 1.5% of PRB-5, and 1.5% and 0.5% of PRB-7.

A short description of series [4]: Histological analysis of tissue samples, liver fat (Example 5c). Type of series: in vivo, C57BL/6 mice. The settings on record: eosin-hematoxylin; control animals fed high fat diet had fat liver. An excerpt:
Tissue samples from animals in the experiments with DHA derivatives was histologically analysed. After paraffination, tissue samples from liver, adipose tissue, skeletal muscle, pancreas, and kidney were stained with eosin-hematoxylin.

SMILES strings stand for the structures.

Take `CC/C=C\C/C=C\C/C=C\C/C=C\C/C=C\C/C=C\CC(SCC)C(=O)OCC` (stereo not drawn) [PRB-7, α-tioethyl docosahexaenoic acid ethyl ester]: in series [1], the “release of luciferase from transfected cells” value is “significantly higher release of luciferase”. Further, in series [2], the “intracellular concentration of DHA in liver tissue from animals given the PRB” value is reported as “significantly higher level”. Further, the plasma insulin result in series [3] (FIG. 15) is “some effects on the insulin concentration”. Moreover, the “AUC blood glucose compared to the baseline values” in series [3] (FIG. 16, 1.5% of PRB-2) is “some effect but not to the same extent”. The “fat liver (liver steatosis), histology” value in series [4] is “low degree of fat liver”.

These data come from patent US7550613B2, “Compounds” (Pronova Biopharma Norge AS, priority 2005, dated 2009).
